± gives the expanded uncertainty stated by the source.
Assays:
[1] = refractive index (Na D-line) (dimensionless); details: 298.15 K; 101.33 kPa; Liquid; Standard Abbe refractometry
[2] = Liquid; for mass density / speed of sound: 298.15 K; for mass density: 101.33 kPa, Vibrating tube method; for speed of sound: Sing-around technique in a fixed-path interferometer
[3] = refractive index (Na D-line) (dimensionless); xn = mol fraction of the nth substance listed; details: 298.15 K, 101.3 kPa, Liquid, Standard Abbe refractometry
[4] = xn = mol fraction of the nth substance listed; details: 298.15 K, 101.3 kPa, Liquid; for speed of sound: Sing-around technique in a fixed-path interferometer

CCCO [propan-1-ol]
Details	mass density [kg/m3]	refractive index	speed of sound [m/s]
[1]	–	1.38304 ± 0.00032	–
[2]	799.75 ± 0.23	–	1205.7 ± 1.3

Details	vapor or sublimation pressure [kPa]
[2], 370.29 K	101.3 ± 1

CCC(C)CO (stereo unspecified) [2-methyl-1-butanol]
Details	mass density [kg/m3]	refractive index	speed of sound [m/s]
[1]	–	1.40872 ± 0.00032	–
[2]	814.87 ± 0.2	–	1253.3 ± 1.2

Details	vapor or sublimation pressure [kPa]
[2], 401.93 K	101.3 ± 1

CCC(C)CO (stereo unspecified) [2-methyl-1-butanol] + CCCO
Details	mass density, [4] [kg/m3]	refractive index, [3]	speed of sound, [4] [m/s]
x2 = 0.051	814.37 ± 0.35	1.40768 ± 0.00032	1252.4 ± 1.3
x2 = 0.1	813.84 ± 0.35	1.40677 ± 0.00032	1250.6 ± 1.3
x2 = 0.151	813.28 ± 0.36	1.40573 ± 0.00032	1248.7 ± 1.3
x2 = 0.2	812.71 ± 0.36	1.40478 ± 0.00032	1246.8 ± 1.3
x2 = 0.251	812.09 ± 0.36	1.4038 ± 0.00032	1244.7 ± 1.3
x2 = 0.3	811.46 ± 0.36	1.40272 ± 0.00032	1242.8 ± 1.3
x2 = 0.351	810.8 ± 0.36	1.40164 ± 0.00032	1240.5 ± 1.3
x2 = 0.408	810.04 ± 0.36	1.40039 ± 0.00033	1238 ± 1.3
x2 = 0.45	809.44 ± 0.37	1.39934 ± 0.00033	1236.1 ± 1.3
x2 = 0.501	808.69 ± 0.37	1.39815 ± 0.00033	1233.7 ± 1.3
x2 = 0.55	807.94 ± 0.37	1.39697 ± 0.00033	1231.3 ± 1.3
x2 = 0.6	807.14 ± 0.37	1.39556 ± 0.00033	1228.8 ± 1.3
x2 = 0.65	806.3 ± 0.37	1.39422 ± 0.00033	1226.2 ± 1.3
x2 = 0.7	805.38 ± 0.38	1.39279 ± 0.00033	1223.2 ± 1.3
x2 = 0.75	804.5 ± 0.38	1.39133 ± 0.00033	1220.7 ± 1.3
x2 = 0.801	803.53 ± 0.38	1.38982 ± 0.00033	1217.6 ± 1.3
x2 = 0.85	802.6 ± 0.38	1.38815 ± 0.00033	1214.8 ± 1.3
x2 = 0.899	801.61 ± 0.38	1.38658 ± 0.00033	1211.8 ± 1.3
x2 = 0.949	800.64 ± 0.39	1.38483 ± 0.00033	1208.7 ± 1.3

CC(C)CCO [3-methylbutan-1-ol]
Details	mass density [kg/m3]	refractive index	speed of sound [m/s]
[1]	–	1.40515 ± 0.00032	–
[2]	806.78 ± 0.2	–	1238.8 ± 1.3

Details	vapor or sublimation pressure [kPa]
[2], 404.27 K	101.3 ± 1

CC(C)CCO [3-methylbutan-1-ol] + CCCO
Details	mass density, [4] [kg/m3]	refractive index, [3]	speed of sound, [4] [m/s]
x2 = 0.05	806.4 ± 0.36	1.40447 ± 0.00032	1234.4 ± 1.3
x2 = 0.1	806.12 ± 0.36	1.40366 ± 0.00032	1233.5 ± 1.3
x2 = 0.15	805.83 ± 0.36	1.40281 ± 0.00032	1232.3 ± 1.3
x2 = 0.201	805.54 ± 0.36	1.402 ± 0.00032	1231.1 ± 1.3
x2 = 0.251	805.25 ± 0.37	1.40115 ± 0.00032	1230 ± 1.3
x2 = 0.3	804.97 ± 0.37	1.4002 ± 0.00032	1228.8 ± 1.3
x2 = 0.351	804.66 ± 0.37	1.39919 ± 0.00032	1227.5 ± 1.3
x2 = 0.4	804.37 ± 0.37	1.3983 ± 0.00032	1226.2 ± 1.3
x2 = 0.45	804.07 ± 0.37	1.39734 ± 0.00033	1224.9 ± 1.3
x2 = 0.5	803.75 ± 0.37	1.39621 ± 0.00033	1223.4 ± 1.3
x2 = 0.551	803.41 ± 0.37	1.39507 ± 0.00033	1222 ± 1.3
x2 = 0.6	803.08 ± 0.37	1.39396 ± 0.00033	1220 ± 1.3
x2 = 0.65	802.72 ± 0.38	1.39278 ± 0.00033	1218.5 ± 1.3
x2 = 0.7	802.34 ± 0.38	1.39148 ± 0.00033	1217 ± 1.3
x2 = 0.749	801.96 ± 0.38	1.39035 ± 0.00033	1215.3 ± 1.3
x2 = 0.799	801.55 ± 0.38	1.38898 ± 0.00033	1213.6 ± 1.3
x2 = 0.85	801.13 ± 0.38	1.38757 ± 0.00033	1211.8 ± 1.3
x2 = 0.9	800.69 ± 0.38	1.3861 ± 0.00033	1210 ± 1.3
x2 = 0.95	800.22 ± 0.38	1.38458 ± 0.00033	1208.2 ± 1.3

— the NIST ThermoML archive (doi:10.1021/je0502142)
